Laboratory results taken from patent USRE39197E1, “Cell adhesion-inhibiting antiinflammatory and immune-suppressive compounds” (Abbott Laboratories, priority 1998, dated 2006).

What was measured:
[1] = system: adhesion of JY-8 cells (expressing LFA-1) to immobilized ICAM-3; assay: ICAM-3/JY-8 Cell Adhesion Assay; assay type: cell-based, human; conditions: 0.6 μM compound, JY-8 cells on immobilized ICAM-3/Ig; for inhibition at 0.6 µM: Homo sapiens
Protocol: As such, it is expected that these compounds should block the interaction of LFA-1 with other CAM's. […] Compounds of the present invention may be evaluated for their ability to block the adhesion of JY-8 cells (a human EBV-transformed B cell line expressing LFA-1 on its surface) to immobilized ICAM-3, as follows:
ICAM-3/JY-8 Cell Adhesion Assay
For measurement of inhibitory activity in the cell-based adhesion assay, 96-well microtiter plates are were coated with 50 μL of recombinant ICAM-3/Ig (ICOS Corporation) at a concentration of 10 μg/mL in D-PBS w/o without Ca^++ or Mg^++ overnight at 4° C. The wells are were then washed twice with D-PBS, blocked by addition of 100 μL of D-PBS, 1% bovine serum albumin (BSA) by incubation for 1 hour at room temperature, and washed once with RPMI-1640/5% heat-inactivated fetal bovine serum (adhesion buffer). Dilutions of compounds to be assayed for ICAM-3/LFA-1 antagonistic activity are were prepared in adhesion buffer from 10 mM stock solutions in DMSO and 100 μL are were added to duplicate wells. JY-8 cells (a human EBV-transformed B cell line expressing LFA-1 on its surface; 100 μL at 0.75×10^6 cells/ml mL in adhesion buffer) are were then added to the wells. Microtiter plates are were incubated for 30 minutes at room temperature; the adherent cells are were then fixed with 50 μL of 14% glutaraldehyde/D-PBS and were incubated for an additional 90 minutes. The wells are were washed gently with dH2O; 50 μL of dH2O is was added, following followed by 50 μL of 1% crystal violet. After 5 minutes the plates are were washed 3× times with dH2O; 75 μL of dH2O and 225 μL of 95% EtOH are were added to each well to extract the crystal violet from the cells. Absorbance is was measured at […] in an ELISA plate reader. The percent inhibition of a candidate compound is was calculated using the following equation. [formula]

[2] = biological target: T1, interaction between the integrin LFA-1 and its adhesion partner ICAM-1 (Homo sapiens, UniProt P20701); assay: ICAM-1/LFA-1 Biochemical Interaction Assay; assay type: binding; conditions: 4 μM compound; recombinant LFA-1, biotinylated ICAM-1/Ig
T1 construct: Recombinant LFA-1 (100 μL of 0.7 μg/ml mL, ICOS Corporation) in D-PBS; purchased ICOS Corporation
Protocol: Compounds that antagonize the interaction between ICAM-1 and LFA-1 can be identified, and their activities quantitated, using both biochemical and cell-based adhesion assays. A primary biochemical assay measures the ability of the compound in question to block the interaction between the integrin LFA-1 and its adhesion partner ICAM-1, as described below:
ICAM-1/LFA-1 Biochemical Interaction Assay
In the biochemical assay, 100 μL of anti-LFA-1 antibody (ICOS Corporation) at a concentration of 5 μg/ml mL in Dulbecco's phosphate-buffered saaline (D-PBS) is used to coat wells of a 96-well microtiter plate overnight at 4° C. The wells are were then washed twice with wash buffer (D-PBS w/o Ca^++ or Mg^++, 0.05% Tween 20) and blocked by addition of 200 μL of D-PBS, 5% fish skin gelatin. Recombinant LFA-1 (100 μL of 0.7 μg/ml mL, ICOS Corporation) in D-PBS is was then added to each well. Incubation continues continued for 1 hour at room temperature and the wells are were washed twice with wash buffer. Serial dilutions of compounds being assayed as ICAM-1/LFA-1 antagonists, were prepared as 10 mM stock solutions in dimethyl sulfoxide (DMSO), are were diluted in D-PBS, 2 mM MgCl2, 1% fish skin gelatin and 50 μL of each dilution was added to duplicate wells. This is was followed by the addition of 50 μL of 0.8 μg/ml mL biotinylated recombinant ICAM-1/Ig (ICOS Corporation) to the wells and the plates are were incubated at room temperature for 1 hour. The wells are were then washed twice with wash buffer and 100 μL of Europium-labeled Streptavidin (Wallac Oy) diluted 1:100 in Delfia assay buffer (Wallac Oy), are was then added to the wells. Incubation proceeds proceeded for 1 hour at room temperature. The wells are were washed eight times with wash buffer and 100 μL of enhancement solution (Wallac Oy, cat. No. 1244-105) are was added to each well. Incubation proceeds proceeded for 5 minutes with constant mixing. Time-resolved fluorimetry measurements are were made using the a Victor 1420 Multilabel Counter (Wallac Oy) and the percent inhibition of each candidate compound is was calculated using the following equation: [formula] where “background” refers to wells that are were not coated with anti-LFA-1 antibody.

[3] = system: adherence of JY-8 cells (expressing LFA-1) to immobilized ICAM-1; assay: ICAM-1/JY-8 Cell Adhesion Assay; assay type: cell-based, human
Protocol: ICAM-1/JT-8 Cell Adhesion Assay
For measurment measurement of inhibotory inhibitory activity in the cell-based adhesion assay, 96-well microtiter plates are were coated with 70 μL of recombinat recombinant ICAM-1/Ig (ICOS Corporation) at a concentration of 5 μg/mL in D-PBS w/o without Ca^++ or Mg++ or Mg^++ overnight at 4° C. The wells are were then washed twice with D-PBS and blocked by addition of 200 μL of D-PBS, 5% fish skin gelatin by incubation for 1 hour at room temperature. […] The percent inhibition of a candidate compound at a given concentration is was calculated using the following equation: [formula] and these concentration/inhibition data are were used to generate does response curves, from which IC50 values are were derived.

[4] = Homo sapiens, JY-8, JY-8 cells on immobilized ICAM-1/Ig
[5] = JY-8 cells on immobilized ICAM-1/Ig

T1 sequence (P20701 26-1170): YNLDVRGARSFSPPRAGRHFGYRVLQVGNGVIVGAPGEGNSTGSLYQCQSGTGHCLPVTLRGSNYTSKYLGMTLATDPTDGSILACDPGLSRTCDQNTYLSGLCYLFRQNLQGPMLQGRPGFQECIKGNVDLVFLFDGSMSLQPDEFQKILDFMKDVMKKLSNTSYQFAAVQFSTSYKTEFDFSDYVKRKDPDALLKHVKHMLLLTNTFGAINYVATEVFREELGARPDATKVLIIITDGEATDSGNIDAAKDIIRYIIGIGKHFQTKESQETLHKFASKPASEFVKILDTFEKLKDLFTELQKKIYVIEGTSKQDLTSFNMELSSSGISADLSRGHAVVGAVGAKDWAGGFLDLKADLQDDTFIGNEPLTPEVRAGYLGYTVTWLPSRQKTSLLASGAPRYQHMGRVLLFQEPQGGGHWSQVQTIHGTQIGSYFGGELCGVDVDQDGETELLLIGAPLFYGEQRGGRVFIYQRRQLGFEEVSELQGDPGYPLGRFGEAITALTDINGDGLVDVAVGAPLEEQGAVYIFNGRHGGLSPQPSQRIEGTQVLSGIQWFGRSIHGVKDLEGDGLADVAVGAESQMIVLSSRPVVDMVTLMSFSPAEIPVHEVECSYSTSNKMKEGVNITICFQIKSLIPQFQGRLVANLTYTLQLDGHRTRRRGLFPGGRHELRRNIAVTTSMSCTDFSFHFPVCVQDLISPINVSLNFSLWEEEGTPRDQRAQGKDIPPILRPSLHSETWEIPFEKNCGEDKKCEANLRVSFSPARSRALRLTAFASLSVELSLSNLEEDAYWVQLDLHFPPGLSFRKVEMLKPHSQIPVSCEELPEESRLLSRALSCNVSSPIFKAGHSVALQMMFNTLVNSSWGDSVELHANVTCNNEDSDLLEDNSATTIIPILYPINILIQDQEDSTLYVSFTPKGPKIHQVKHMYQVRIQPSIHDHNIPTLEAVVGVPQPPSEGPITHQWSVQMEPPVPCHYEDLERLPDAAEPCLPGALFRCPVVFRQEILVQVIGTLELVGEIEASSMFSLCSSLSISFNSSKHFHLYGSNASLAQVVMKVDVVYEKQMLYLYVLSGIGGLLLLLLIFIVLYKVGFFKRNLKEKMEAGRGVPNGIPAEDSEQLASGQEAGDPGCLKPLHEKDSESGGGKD
T1 sequence (P05107 23-769 partner): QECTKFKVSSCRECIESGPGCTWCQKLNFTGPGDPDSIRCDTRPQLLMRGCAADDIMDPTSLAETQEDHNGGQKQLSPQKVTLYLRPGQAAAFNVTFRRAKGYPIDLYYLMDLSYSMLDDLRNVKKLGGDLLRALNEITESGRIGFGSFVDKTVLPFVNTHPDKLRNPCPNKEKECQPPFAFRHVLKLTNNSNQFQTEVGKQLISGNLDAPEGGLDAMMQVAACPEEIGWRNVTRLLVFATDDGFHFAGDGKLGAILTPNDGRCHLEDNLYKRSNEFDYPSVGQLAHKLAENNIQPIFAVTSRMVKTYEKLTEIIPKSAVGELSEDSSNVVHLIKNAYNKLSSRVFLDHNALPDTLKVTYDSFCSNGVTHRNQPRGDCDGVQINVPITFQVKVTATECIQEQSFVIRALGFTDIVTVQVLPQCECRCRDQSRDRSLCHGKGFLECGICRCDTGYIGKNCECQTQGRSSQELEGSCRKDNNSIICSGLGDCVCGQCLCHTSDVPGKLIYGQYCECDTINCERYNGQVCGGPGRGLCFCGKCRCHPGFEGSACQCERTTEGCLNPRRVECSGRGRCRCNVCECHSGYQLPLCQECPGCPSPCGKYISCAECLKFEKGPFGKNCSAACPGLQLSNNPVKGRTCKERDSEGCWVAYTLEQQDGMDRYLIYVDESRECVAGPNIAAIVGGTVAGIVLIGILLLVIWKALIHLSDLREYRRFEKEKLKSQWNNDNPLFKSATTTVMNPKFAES

With `CC(=O)N1CCN(C(=O)/C=C/c2ccc(Sc3ccc(Cl)cc3Cl)c(Cl)c2)CC1` [Example 9, (2,4-Dichlorophenyl)[2-chloro-4-(E-((4-acetylpiperazin-1-yl)carbonyl)ethenyl)phenyl]sulfide] the inhibition at 0.6 µM [1] was 100%, the inhibition at 4 µM [2] was 93% and the IC50 [3, 4] was 130 nM.
`O=C(/C=C/c1ccc(Sc2ccccc2Br)c(Cl)c1)N1CCOCC1` [Example 12] was tested, and the “% inhibition @ 0.6 μM” value [1] was 100%, the “% inhibition @ 4 μM” value [2] was 90% and the IC50 [3, 5] was 360 nM.
For `O=C(/C=C/c1ccc(Sc2ccccc2Br)c(Cl)c1)N1CCCC(CO)C1` (centres unmarked) [Example 15, (2-(Bromophenl)[2-chloro-4-(E-((3-hydroxymethyl)piperidin-1-yl)carbonyl)ethenyl)phenyl]sulfide], the “% inhibition @ 0.6 μM” value [1] was 100%, the “% inhibition @ 4 μM” value [2] was 88% and the IC50 [3, 5] was 140 nM.
With `O=C(/C=C/c1ccc(Sc2ccccc2Br)c(Cl)c1)N1CCCCC1CO` (centres unmarked) [Example 16, (2-(Bromophenyl)[2-chloro-4-(E-((2-hydroxymethyl)piperidin-1-yl)carbonyl)ethenyl)phenyl]sulfide] the “% inhibition @ 0.6 μM” value [1] was 100%, the “% inhibition @ 4 μM” value [2] was 86% and the IC50 [3, 5] was 300 nM.
`CC(=O)NC1CCN(C(=O)/C=C/c2ccc(Sc3ccccc3Br)c(Cl)c2)C1` (centres unmarked) [Example 17] was tested, and the “% inhibition @ 0.6 μM” value [1] was 100%, the “% inhibition @ 4 μM” value [2] was 84% and the IC50 [3, 5] was 5800 nM.
For `O=C(/C=C/c1ccc(Sc2ccccc2Br)c(Cl)c1)N1CCC(O)CC1` [Example 18], the “% inhibition @ 0.6 μM” value [1] was 100%, the “% inhibition @ 4 μM” value [2] was 86% and the IC50 [3, 5] was 130 nM.
With `CC(=O)N1CCN(C(=O)/C=C/c2ccc(Sc3ccccc3C)c(C(F)(F)F)c2)CC1` [Example 26] the “% inhibition @ 0.6 μM” value [1] was 100%, the “% inhibition @ 4 μM” value [2] was 94% and the IC50 [3, 5] was 110 nM.
In the case of `Cc1ccccc1Sc1ccc(/C=C/C(=O)N2CCOCC2)cc1C(F)(F)F` [Example 27, (2-Methylphenyl)[2-trifluoromethyl-4-(E-((1-morpholinyl)carbonyl)ethenyl)phenyl]sulfide], the “% inhibition @ 0.6 μM” value [1] is reported as 100%, the “% inhibition @ 4 μM” value [2] is reported as 94% and the IC50 [3, 5] is reported as 160 nM.
`Cc1ccccc1Sc1ccc(/C=C/C(=O)NCCCN2CCCC2=O)cc1C(F)(F)F` [Example 30, (2-Methylphenyl)[2-trifluoromethyl-4-(E-((3-(2-oxopyrrolidin-1-yl)propylamino)carbonyl)ethenyl)phenyl]sulfide] was tested, and the inhibition at 0.6 µM [1] was 100%, the inhibition at 4 µM [2] was 93% and the IC50 [3, 4] was 250 nM.
`CC(=O)N1CCN(C(=O)/C=C/c2ccc(Sc3ccc(Cl)cc3Cl)c([N+](=O)[O-])c2)CC1` [Example 32, (2,4-Dichlorophenyl)[2-nitro-4-(E-((4-acetylpiperazin-1-yl)carbonyl)ethenyl)phenyl]sulfide] gave an inhibition at 0.6 µM [1] of 100% and an inhibition at 4 µM [2] of 92%.
In the case of `CC(=O)N1CCN(C(=O)/C=C/c2ccc(Sc3cccc(Cl)c3Cl)c([N+](=O)[O-])c2)CC1` [Example 34, (2,3-Dichlorophenyl)[2-nitro-4-(E-((4-acetylpiperazin-1-yl)carbonyl)ethenyl)phenyl]sulfide], the inhibition at 0.6 µM [1] is reported as 100%, the inhibition at 4 µM [2] is reported as 91% and the IC50 [3, 4] is reported as 70 nM.
In the case of `CC(=O)N1CCN(C(=O)/C=C/c2ccc(Sc3ccc(Br)cc3)c([N+](=O)[O-])c2)CC1` [Example 35, (4-Bromophenyl)[2-nitro-4-(E-((4-acetylpiperazin-1-yl)carbonyl)ethenyl)phenyl]sulfide], the inhibition at 0.6 µM [1] is reported as 100%, the inhibition at 4 µM [2] is reported as 89% and the IC50 [3, 4] is reported as 430 nM.
`CCN(CC)C(=O)N1CCN(C(=O)/C=C/c2ccc(Sc3ccc(Cl)cc3Cl)c([N+](=O)[O-])c2)CC1` [Example 41, (2,4-Dichlorophenyl)[2-nitro-4-(E-((4-(diethylaminocarbonyl)piperazin-1-yl)carbonyl)ethenyl)phenyl]sulfide] gave an inhibition at 0.6 µM [1] of 100%, an inhibition at 4 µM [2] of 83% and an IC50 [3, 4] of 110 nM.
`CC(=O)N1CCN(C(=O)/C=C/c2ccc(Sc3ccccc3C)c([N+](=O)[O-])c2)CC1` [Example 45, (2-Methylphenyl)[2-nitro-4-(E-((4-acetylpiperazin-1-yl)carbonyl)ethenyl)phenyl]sulfide] gave an inhibition at 0.6 µM [1] of 100%, an inhibition at 4 µM [2] of 88% and an IC50 [3, 4] of 50 nM.
With `CC(=O)N1CCN(C(=O)/C=C/c2ccc(Sc3ccccc3Cl)c([N+](=O)[O-])c2)CC1` [Example 46, (2-Chlorophenyl)[2-nitro-4-(E-((4-acetylpiperazin-1-yl)carbonyl)ethenyl)phenyl]sulfide] the inhibition at 0.6 µM [1] was 100%, the inhibition at 4 µM [2] was 87% and the IC50 [3, 4] was 60 nM.
`CCc1ccccc1Sc1ccc(/C=C/C(=O)N2CCN(C(C)=O)CC2)cc1[N+](=O)[O-]` [Example 49, (2-Ethylphenyl)[2-nitro-4-(E-((4-acetylpiperazin-1-yl)carbonyl)ethenyl)phenyl]sulfide] gave an inhibition at 0.6 µM [1] of 100%, an inhibition at 4 µM [2] of 93% and an IC50 [3, 4] of 20 nM.
`CC(=O)N1CCN(C(=O)/C=C/c2ccc(Sc3ccccc3C=O)c([N+](=O)[O-])c2)CC1` [Example 60, (2-Formylphenyl)[2-nitro-4-(E-((4-acetylpiperazin-1-yl)carbonyl)ethenyl)phenyl]sulfide] was tested, and the inhibition at 0.6 µM [1] was 100%, the inhibition at 4 µM [2] was 95% and the IC50 ([3]; Homo sapiens, JY-8 cells on immobilized ICAM-1/Ig) was 30 nM.
